Two molecules from patent US20060062758A1, “Tight junction modulator peptide PN159 for enhanced mucosal delivery of therapeutic compounds” (Nastech Pharmaceutical Comapny Inc., priority 2004, published 2006) can be followed below.

As usually defined, the Papp is a coefficient for how fast a substance crosses the barrier.

Series [1] concerns EpiAirway™ Cell Membrane (mucosal epithelial cell layer). Briefly: Transepithelial electrical resistance (TER), EpiAirway in vitro epithelial tissue model. The note with it: Example 2, PTH formulation study, applied to apical side. In kind it is cell-based. The source says: One “kit” consists of 24 units.
A. Respiratory airway epithelial cells form tight junctions in vivo as well as in vitro, and thereby restrict the flow of solutes across the tissue. These junctions confer a transepithelial resistance of several hundred ohms×cm^2 in excised airway tissues. In the MatTek EpiAirway™ units, the transepithelial electrical resistance (TER) is reported by the manufacturer to be routinely around 1000 ohms×cm^2. […] The porous membrane-bottomed units without cells, conversely, provide only minimal transmembrane resistance (approximately 5-20 ohms×cm^2).
B. Accurate determinations of TER require that the electrodes of the ohmmeter be positioned over a significant surface area above and below the membrane, and that the distance of the electrodes from the membrane be reproducibly controlled. The method for TER determination recommended by MatTek and employed for all experiments herein employs an “EVOM”™ epithelial voltohmmeter and an “ENDOHM”™ tissue resistance measurement chamber from World Precision Instruments, Inc., Sarasota, Fla.
D. Determinations of TER are made with 1.5 mL of PBS in the chamber and 350 μL of PBS in the membrane-bottomed unit being measured. The top electrode is adjusted to a position just above the membrane of a unit containing no cells (but containing 350 μL of PBS) and then fixed to ensure reproducible positioning. The resistance of a cell-free unit is typically 5-20 ohms×cm^2 (“background resistance”).
G. The unit is gently blotted free of excess PBS on its exterior surface only before being placed into the chamber (containing a fresh 1.5 mL aliquot of PBS). An aliquot of 350 μL PBS is added to the unit before the top electrode is placed on the chamber and the TER is read on the EVOM meter.
I. The units are read in the following sequence: all sham-treated controls, followed by all formulation-treated samples, followed by a second TER reading of each of the sham-treated controls. All TER values are reported as a function of the surface area of the tissue.
TER was calculated as: TER=(R1−Rb)×A Where R1 is resistance of the insert with a membrane, Rb is the resistance of the blank insert, and A is the area of the membrane (0.6 cm^2). The effect of pharmaceutical formulations comprising intranasal delivery-enhancing agents, for example, permeabilizing peptides as measured by TER across the EpiAirway™ Cell Membrane (mucosal epithelial cell layer). Permeabilizing peptides are applied to the EpiAirway™ Cell Membrane at a concentration of 1.0 mM. A decrease in TER value relative to the control value (control=approximately 1000 ohms-cm^2; normalized to 100.) indicates a decrease in cell membrane resistance and an increase in mucosal epithelial cell permeability.
(§1) The formulation pH was fixed at 4.5.

Series [2] shares this test system. Nature of the series: LDH assay (cytotoxicity), in vitro epithelial tissue model. In kind it is cell-based. The note with it: Example 2, PTH study; PN159 25-100 μM. How it is done:
Repeated freeze-thaw cycles are to be avoided.
The amount of cell death was assayed by measuring the loss of lactate dehydrogenase (LDH) from the cells using a CytoTox 96 Cytoxicity Assay Kit (Promega Corp., Madison, Wis.). Fifty microliters of sample was loaded into a 96-well assay plates. Fresh, cell-free culture medium was used as a blank. 50 μl of substrate solution was added to each well and the plates incubated for 30 minutes at room temperature in the dark. Following incubation, 50 μl of stop solution was added to each well and the plates read on an optical density plate reader at 490 nm.
as §1

The nature of series [3]: Permeation kinetics across the in vitro epithelial tissue model. The note with it: human, pH 5, Papp; for Papp at 120 min, 40 mg/mL: galantamine 40 mg/mL pH 5.0, calcitonin 1 mg/mL pH 3.5, PTH1-34 1 mg/mL pH 4.5. As for the experimental part: (§2) The EpiAirway™ system was developed by MatTek Corp (Ashland, Mass.) as a model of the pseudostratified epithelium lining the respiratory tract. The epithelial cells are grown on porous membrane-bottomed cell culture inserts at an air-liquid interface, which results in differentiation of the cells to a highly polarized morphology. The apical surface is ciliated with a microvillous ultrastructure and the epithelium produces mucus (the presence of mucin has been confirmed by immunoblotting). The inserts have a diameter of 0.875 cm, providing a surface area of 0.6 cm^2. The cells are plated onto the inserts at the factory approximately three weeks before shipping. One “kit” consists of 24 units.
(§3) A. A “kit” of 24 EpiAirway™ units can routinely be employed for evaluating five different formulations, each of which is applied to quadruplicate wells. Each well is employed for determination of permeation kinetics (4 time points), transepithelial electrical resistance (TER). An additional set of wells is employed as controls, which are sham treated during determination of permeation kinetics, but are otherwise handled identically to the test sample-containing units for determinations of transepithelial resistance and viability.
(§4) B. In all experiments, the mucosal delivery formulation to be studied is applied to the apical surface of each unit in a volume of 100 μL, which is sufficient to cover the entire apical surface. An appropriate volume of the test formulation at the concentration applied to the apical surface (no more than 100 μL is generally needed) is set aside for subsequent determination of concentration of the active material by ELISA or other designated assay.
(§5) D. In order to minimize potential sources of error and avoid any formation of concentration gradients, the units are transferred from one 0.9 mL-containing well to another at each time point in the study. These transfers are made at the following time points, based on a zero time at which the 100 μL volume of test material was applied to the apical surface: 15 minutes, 30 minutes, 60 minutes, and 120 minutes.
(§6) F. At the completion of each time point, the medium is removed from the well from which each unit was transferred, and aliquotted into two tubes (one tube receives 700 μL and the other 200 μL) for determination of the concentration of permeated test material and, in the event that the test material is cytotoxic, for release of the cytosolic enzyme, lactate dehydrogenase, from the epithelium. These samples are kept in the refrigerator if the assays are to be conducted within 24 hours, or the samples are subaliquotted and kept frozen at −80° C. until thawed once for assays. Repeated freeze-thaw cycles are to be avoided.
(§7) EIA kit (p/n S-1178(EIAH6101) was purchased from Peninsula Laboratories Inc. (Division of BACHEM, San Carlos, Calif., 800-922-1516). 17×120 mm polypropylene conical tubes (p/n 352097, Falcon, Franklin Lakes, N.J.) were used for all sample preparations. Eight standards were used for PTH quantitation. The rest of the assay procedure was the same as the kit inserts.
(§8) The instant study was designed to evaluate the effect of PN159 itself or in combination with additional permeation enhancers on PTH permeation. The PN159 concentrations evaluated are 25, 50, and 100 μM. The additional permeation enhancers are 45 mg/ml M-β-CD, 1 mg/ml DDPC, and 1 mg/ml EDTA. Sorbitol was used as a tonicifier (146-190 mM) to adjust the osmolarity of formulations to 220 mOsm/kg. The formulation pH was fixed at 4.5. PTH was chosen as a model peptide in this example. 2 mg/ml PTH was combined with PN159 with or without additional permeation enhancers. The combination was tested using an in vitro epithelial tissue model to monitor PTH permeation, transepithelial electrical resistance (TER), and the cytotoxicity of the formulation by LDH assay.
(§9) The effect of PN159 on permeation of MC-4RA was evaluated in this study.

The test system of series [4] is EpiAirway™ Cell Membrane (mucosal epithelial cell layer). The series is described as above. How it is done:
as §2, §3, §4, §5, §6, §7, §8, §9

For Triton X [reference compound], the “TER reduction (in words)” value in series [1] was “significant TER reduction”. The “cytotoxicity (LDH)” value in series [2] was “significant cytotoxicity”.

Consider `COc1ccc2c3c1O[C@H]1C[C@@H](O)C=C[C@@]31CCN(C)C2` [Galantamine, galantamine, reference compound], for which the Papp at 120 min, 40 mg/mL in series [3] ([PN159] 0 μM, PYY3-36 1 mg/mL, pH was 5.0) is roughly 2.1 ×10⁻⁶ cm/s; in series [3] ([PN159] 25 μM, PYY3-36 1 mg/mL pH 7.0) it was 5.1 ×10⁻⁶ cm/s; in series [3] ([PN159] 50 μM) it was 6.2 ×10⁻⁶ cm/s; in series [3] ([PN159] 100 μM, PYY3-36 1 mg/mL pH 7.0), 7.2 ×10⁻⁶ cm/s. Also, the Papp at 120 min, 40 mg/ml in series [3] (in the presence of 25 nM PN159 (as printed in text)) was found to be 5.1 ×10⁻⁶ cm/s; in series [3] (in the presence of 50 nM PN159 (as printed in text)), 6.2 ×10⁻⁶ cm/s; in series [3] (in the presence of 100 nM PN159 (as printed in text)) it was 7.2 ×10⁻⁶ cm/s. Also, the apparent permeability (Papp) in series [4] ([PN159] 0 μM, galantamine 40 mg/mL pH 5.0, calcitonin 1 mg/mL pH 3.5, PTH1-34 1 mg/mL pH 4.5, PYY3-36 1 mg/mL, pH was 5.0) is 2.1 ×10⁻⁶ cm/s. Moreover, the “increase in Papp” value in series [4] (drug in the presence of PN159 vs drug alone) is 2.5-3.5 fold.
